# Measured values as given in patent US20260184710A1, “CASITAS B-LINEAGE LYMPHOMA PROTOONCOGENE B (CBL-B) DEGRADING COMPOUNDS AND ASSOCIATED METHODS OF USE” (Arvinas Operations, Inc., priority 2022, published 2026).
# Legend:
# Cbl-b [1] = target: T1, Cbl-b (Homo sapiens, UniProt Q13191); assay: Cbl-b Degradation Method A (FACS, anti-Cbl-b antibody staining); type: cell-based; settings: Cbl-b-HiBit KI Jurkat Cells, incubated at least 20 hours; for DC50: half maximal degradation, read-out: Cbl-b Degredation Method A IC50; for Dmax: Jurkat, maximum degradation observed, read-out: Cbl-b Degredation Method A Dmax (%)
# T1 construct: Cbl-b-HiBit KI Jurkat Cells were purchased from Promega; host or cells: Cbl-b-HiBiT knock-in Jurkat cells
# T1 sequence (Q13191 whole entry): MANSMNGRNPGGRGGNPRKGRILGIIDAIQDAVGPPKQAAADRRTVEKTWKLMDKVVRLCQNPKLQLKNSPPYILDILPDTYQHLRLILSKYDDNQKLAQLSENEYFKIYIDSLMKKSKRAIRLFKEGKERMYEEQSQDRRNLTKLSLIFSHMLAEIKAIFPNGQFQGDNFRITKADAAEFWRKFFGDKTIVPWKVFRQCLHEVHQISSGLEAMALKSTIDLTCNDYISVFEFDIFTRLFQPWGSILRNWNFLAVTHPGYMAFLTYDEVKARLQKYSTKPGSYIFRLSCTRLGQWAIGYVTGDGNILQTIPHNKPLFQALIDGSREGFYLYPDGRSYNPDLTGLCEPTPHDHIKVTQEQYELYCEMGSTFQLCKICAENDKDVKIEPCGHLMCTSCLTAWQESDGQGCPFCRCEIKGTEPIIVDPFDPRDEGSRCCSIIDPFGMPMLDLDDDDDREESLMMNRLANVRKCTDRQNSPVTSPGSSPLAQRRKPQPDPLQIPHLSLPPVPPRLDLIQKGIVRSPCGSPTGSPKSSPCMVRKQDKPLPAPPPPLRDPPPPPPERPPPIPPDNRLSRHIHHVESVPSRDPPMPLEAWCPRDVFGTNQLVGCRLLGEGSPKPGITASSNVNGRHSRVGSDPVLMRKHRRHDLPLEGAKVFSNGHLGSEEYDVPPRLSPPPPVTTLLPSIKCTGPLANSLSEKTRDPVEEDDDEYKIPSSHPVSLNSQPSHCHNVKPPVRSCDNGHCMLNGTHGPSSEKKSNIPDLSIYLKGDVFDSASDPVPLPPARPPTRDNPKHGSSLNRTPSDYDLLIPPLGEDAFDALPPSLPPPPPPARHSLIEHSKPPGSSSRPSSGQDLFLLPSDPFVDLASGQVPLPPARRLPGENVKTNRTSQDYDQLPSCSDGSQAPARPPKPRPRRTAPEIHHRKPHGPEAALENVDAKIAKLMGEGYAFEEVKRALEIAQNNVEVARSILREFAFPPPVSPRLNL
# Method in brief: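 Readout is flow cytometry of fixed, permeabilized cells immunostained for Cbl-b (primary 1:200, AF488 secondary). Cells were Cbl-b-HiBit knock-in Jurkat, exposed to compound ≥20 h at 37 °C; half-maximal degradation concentration (DC50) and maximal degradation (Dmax) calculated relative to control.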
# Cbl-b [2] = target: T1, Cbl-b; assay: Cbl-b Degradation Method B (Nano-Glo HiBiT lytic detection); type: cell-based; settings: Cbl-b-HiBit KI Jurkat Cells, incubated at least 6-24 hours; for DC50: half maximal degradation, read-out: Cbl-b Degredation Method B IC50
# Method in brief: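 An 11-point, 3-fold compound dilution was applied for 6-24 hours to Jurkat cells carrying HiBiT-tagged endogenous Cbl-b. Lytic HiBiT luminescence quantified residual protein. Outputs are DC50 and Dmax relative to DMSO control.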
SMILES,DC50 (Cbl-b [1]) [nM],Dmax (Cbl-b [1]) [%],DC50 (Cbl-b [2]) [nM],Cbl-b Degredation Method B Dmax (%) (Cbl-b [2]; maximum degradation observed),"Dmax (Cbl-b [2]; maximum degradation observed, read-out: Cbl-b Degredation Method B Dmax (%)) [%]"
"Cn1cnnc1CC1(c2cccc(N3Cc4c(cc(CN5CCC[C@H](CN6CCC7(CC6)CCN(c6ccc8c(c6)C(=O)N(C6CCC(=O)NC6=O)C8=O)CC7)C5)cc4C(F)(F)F)C3=O)c2)COC1 (stereo partly drawn) [Example 98, 2-(2,6-dioxopiperidin-3-yl)-5-(9-{[(3R)-1-{[2-(3-{3-[(4-methyl-4H-1,2,4-triazol-3-yl)methyl]oxetan-3-yl}phenyl)-3-oxo-7-(trifluoromethyl)-2,3-dihydro-1H-isoindol-5-yl]methyl}piperidin-3-yl]methyl}-3,9-diazaspiro[5.5]undecan-3-yl)-2,3-dihydro-1H-isoindole-1,3-dione]",> 500,–,> 500,–,–
"CC1CC(CN2CC3(CCN(c4ccc5c(c4)C(=O)N(C4CCC(=O)NC4=O)C5=O)CC3)C2)CN(Cc2cc3c(c(C(F)(F)F)c2)CN(c2cccc(C4(Cc5nncn5C)COC4)c2)C3=O)C1 (stereo not shown) [Example 92, 2-(2,6-dioxopiperidin-3-yl)-5-{2-[(5-methyl-1-{[2-(3-{3-[(4-methyl-4H-1,2,4-triazol-3-yl)methyl]oxetan-3-yl}phenyl)-3-oxo-7-(trifluoromethyl)-2,3-dihydro-1H-isoindol-5-yl]methyl}piperidin-3-yl)methyl]-2,7-diazaspiro[3.5]nonan-7-yl}-2,3-dihydro-1H-isoindole-1,3-dione]",> 500,–,> 500,–,–
"CC(C)n1c(=O)n(C2CCC(=O)NC2=O)c2cccc(N3CCC(O[C@H]4CC[C@H](CN5CCC6(CCN(Cc7cc8c(c(C(F)(F)F)c7)CN(c7cccc([C@]9(Cc%10nncn%10C)C[C@@H](C#N)C9)c7)C8=O)CC6)CC5)CC4)CC3)c21 (stereo partly shown) [Example 317, (1r,3r)-3-[(4-methyl-4H-1,2,4-triazol-3-yl)methyl]-3-(3-{1-oxo-6-[(9-{[(1r,4r)-4-({1-[1-(2,6-dioxopiperidin-3-yl)-2-oxo-3-(propan-2-yl)-2,3-dihydro-1H-1,3-benzodiazol-4-yl]piperidin-4-yl}oxy)cyclohexyl]methyl}-3,9-diazaspiro[5.5]undecan-3-yl)methyl]-4-(trifluoromethyl)-2,3-dihydro-1H-isoindol-2-yl}phenyl)cyclobutane-1-carbonitrile]",50 to 500,35 to 70,< 5,C (C ≤ 35),–
"Cn1cnnc1CC1(c2cccc(N3Cc4c(cc(CN5CCC(CN6CCC(Oc7ccc8c(c7)C(=O)N(C7CCC(=O)NC7=O)C8=O)CC6)CC5)cc4C(F)(F)F)C3=O)c2)COC1 (stereo not shown) [Example 30, 2-(2,6-dioxopiperidin-3-yl)-5-({1-[(1-{[2-(3-{3-[(4-methyl-4H-1,2,4-triazol-3-yl)methyl]oxetan-3-yl}phenyl)-3-oxo-7-(trifluoromethyl)-2,3-dihydro-1H-isoindol-5-yl]methyl}piperidin-4-yl)methyl]piperidin-4-yl}oxy)-2,3-dihydro-1H-isoindole-1,3-dione]",> 500,–,> 500,–,–
"Cn1cnnc1CC1(c2cccc(N3Cc4c(cc(CN5CCC(CN6CCC(COc7ccc8c(c7)C(=O)N(C7CCC(=O)NC7=O)C8=O)CC6)CC5)cc4C(F)(F)F)C3=O)c2)COC1 (stereo not shown) [Example 84, 2-(2,6-dioxopiperidin-3-yl)-5-({1-[(1-{[2-(3-{3-[(4-methyl-4H-1,2,4-triazol-3-yl)methyl]oxetan-3-yl}phenyl)-3-oxo-7-(trifluoromethyl)-2,3-dihydro-1H-isoindol-5-yl]methyl}piperidin-4-yl)methyl]piperidin-4-yl}methoxy)-2,3-dihydro-1H-isoindole-1,3-dione]",> 500,–,> 500,–,–
"Cn1cnnc1CC1(c2cccc(N3Cc4c(cc(CN5CCN(C6CCN(CC7CCN(c8ccc9c(c8)C(=O)N(C8CCC(=O)NC8=O)C9=O)CC7)CC6)CC5)cc4C(F)(F)F)C3=O)c2)COC1 (stereo not shown) [Example 104, 2-(2,6-dioxopiperidin-3-yl)-5-(4-{[4-(4-{[2-(3-{3-[(4-methyl-4H-1,2,4-triazol-3-yl)methyl]oxetan-3-yl}phenyl)-3-oxo-7-(trifluoromethyl)-2,3-dihydro-1H-isoindol-5-yl]methyl}piperazin-1-yl)piperidin-1-yl]methyl}piperidin-1-yl)-2,3-dihydro-1H-isoindole-1,3-dione]",50 to 500,–,> 500,–,–

# Now from value to compound:
DC50 (Cbl-b [1]) [nM],Dmax (Cbl-b [1]) [%],DC50 (Cbl-b [2]) [nM],Cbl-b Degredation Method B Dmax (%) (Cbl-b [2]; maximum degradation observed),"Dmax (Cbl-b [2]; maximum degradation observed, read-out: Cbl-b Degredation Method B Dmax (%)) [%]",SMILES
5 to 50,35 to 70,< 5,C (C ≤ 35),–,"Cn1cnnc1C[C@]1(c2cccc(N3Cc4c(cc(CN5CCN(C[C@H]6CC[C@H](OC7CCN(c8cccc9c8n(C(F)F)c(=O)n9C8CCC(=O)NC8=O)CC7)CC6)CC5(C)C)cc4C(F)(F)F)C3=O)c2)C[C@H](C#N)C1 (stereo partly shown) [Example 324, (1r,3r)-3-(3-{6-[(2,2-dimethyl-4-{[(1r,4r)-4-({1-[3-(difluoromethyl)-1-(2,6-dioxopiperidin-3-yl)-2-oxo-2,3-dihydro-1H-1,3-benzodiazol-4-yl]piperidin-4-yl}oxy)cyclohexyl]methyl}piperazin-1-yl)methyl]-1-oxo-4-(trifluoromethyl)-2,3-dihydro-1H-isoindol-2-yl}phenyl)-3-[(4-methyl-4H-1,2,4-triazol-3-yl)methyl]cyclobutane-1-carbonitrile]"
5 to 50,35 to 70,< 5,C (C ≤ 35),–,"CC1c2nc(N3CCC(CN4CCC(CN5CCN(Cc6cc7c(c(C(F)(F)F)c6)CN(c6cccc([C@]8(Cc9nncn9C)C[C@@H](C#N)C8)c6)C7=O)C(C)(C)C5)CC4)CC3)ccc2C(=O)N1C1CCC(=O)NC1=O (stereo partly shown) [Example 303, (1r,3r)-3-(3-{6-[(4-{[1-({1-[6-(2,6-dioxopiperidin-3-yl)-7-methyl-5-oxo-5H,6H,7H-pyrrolo[3,4-b]pyridin-2-yl]piperidin-4-yl}methyl)piperidin-4-yl]methyl}-2,2-dimethylpiperazin-1-yl)methyl]-1-oxo-4-(trifluoromethyl)-2,3-dihydro-1H-isoindol-2-yl}phenyl)-3-[(4-methyl-4H-1,2,4-triazol-3-yl)methyl]cyclobutane-1-carbonitrile]"
50 to 500,35 to 70,< 5,C (C ≤ 35),–,"Cn1cnnc1C[C@]1(c2cccc(N3Cc4c(cc(CN5CCN(C[C@H]6CC[C@H](OC7CCN(c8ccc9c(n8)n(C)c(=O)n9C8CCC(=O)NC8=O)CC7)CC6)CC5(C)C)cc4C(F)(F)F)C3=O)c2)C[C@H](C#N)C1 (stereo partly shown) [Example 300, (1r,3r)-3-(3-{6-[(2,2-dimethyl-4-{[(1r,4r)-4-({1-[1-(2,6-dioxopiperidin-3-yl)-3-methyl-2-oxo-1H,2H,3H-imidazo[4,5-b]pyridin-5-yl]piperidin-4-yl}oxy)cyclohexyl]methyl}piperazin-1-yl)methyl]-1-oxo-4-(trifluoromethyl)-2,3-dihydro-1H-isoindol-2-yl}phenyl)-3-[(4-methyl-4H-1,2,4-triazol-3-yl)methyl]cyclobutane-1-carbonitrile]"
50 to 500,35 to 70,< 5,C (C ≤ 35),–,"Cn1cnnc1CC1(c2cccc(N3Cc4c(cc(CN5CCN(C[C@H]6CC[C@H](OC7CCN(c8cccc9c8CC(=O)N9C8CCC(=O)NC8=O)CC7)CC6)CC5(C)C)cc4C(F)(F)F)C3=O)c2)CC(C#N)C1 (stereo partly shown) [Example 315, (1r**,3r**)-3-(3-{6-[(2,2-dimethyl-4-{[(1r*,4r*)-4-({1-[1-(2,6-dioxopiperidin-3-yl)-2-oxo-2,3-dihydro-1H-indol-4-yl]piperidin-4-yl}oxy)cyclohexyl]methyl}piperazin-1-yl)methyl]-1-oxo-4-(trifluoromethyl)-2,3-dihydro-1H-isoindol-2-yl}phenyl)-3-[(4-methyl-4H-1,2,4-triazol-3-yl)methyl]cyclobutane-1-carbonitrile]"
< 5,> 70,< 5,–,> 70,"Cn1cnnc1C[C@]1(c2cccc(N3Cc4c(cc(CN5CCN(C[C@H]6CC[C@H](OC7CCN(c8ccc9c(c8)CC(=O)N9C8CCC(=O)NC8=O)CC7)CC6)CC5)cc4C(F)(F)F)C3=O)c2)C[C@H](C#N)C1 (stereo partly shown) [Example 219, (1r,3r)-3-[(4-methyl-4H-1,2,4-triazol-3-yl)methyl]-3-(3-{1-oxo-6-[(4-{[(1r,4r)-4-({1-[1-(2,6-dioxopiperidin-3-yl)-2-oxo-2,3-dihydro-1H-indol-5-yl]piperidin-4-yl}oxy)cyclohexyl]methyl}piperazin-1-yl)methyl]-4-(trifluoromethyl)-2,3-dihydro-1H-isoindol-2-yl}phenyl)cyclobutane-1-carbonitrile]"
5 to 50,< 35,50 to 500,–,–,"Cc1cc(N2CCC(O[C@H]3CC[C@H](CN4CCN(Cc5cc(C(F)(F)F)c6cn(-c7cccc(C8(Cc9nncn9C)CC(C#N)C8)c7)nc6c5)C(C)(C)C4)CC3)CC2)c(F)c2c1C(=O)N(C1CCC(=O)NC1=O)C2 (stereo partly shown) [Example 292, (1r**,3r**)-3-(3-{6-[(2,2-dimethyl-4-{[(1r*,4r*)-4-({1-[2-(2,6-dioxopiperidin-3-yl)-4-fluoro-7-methyl-1-oxo-2,3-dihydro-1H-isoindol-5-yl]piperidin-4-yl}oxy)cyclohexyl]methyl}piperazin-1-yl)methyl]-4-(trifluoromethyl)-2H-indazol-2-yl}phenyl)-3-[(4-methyl-4H-1,2,4-triazol-3-yl)methyl]cyclobutane-1-carbonitrile]"
